Results on one substance are retold here after PMC12595484, “Optimizing multifunctional fluorescent ligands for intracellular labeling” (Proceedings of the National Academy of Sciences of the …, 2025).

For assay [1], the system named is sfGFP–BRD4 in Neuro2a cells expressing HP1a–HaloTag. The experiment in a line: BRD4 translocation to HP1a–HaloTag, LLSM. The following applies: 90 min. Format: cell-based. The source says:
Given its lower fluorescence background and more efficacious recruitment of BRD4, we focused on (S)-JQ1–JF635–HaloTag ligand (19HTL) for subsequent experiments. To test the generality of 19HTL in recruiting BRD4, we imaged cells expressing heterochromatin protein 1a (HP1a) fused to HaloTag (Fig. 7A). HP1a is localized within constitutive heterochromatin as its N-terminal chromodomain binds to methylated histone H3 ([65]).
(2HTL) and JF608-HaloTag ligand (3HTL) reached a fluorescence plateau, and they were chosen as saturating counter stains or “chase” dyes for examining the labeling efficiency of biotin-JF-HaloTag ligands (13HTL–16HTL). Next, we developed an in-gel assay to independently quantitate labeling efficiencies of 13HTL–16HTL. […] Bands representing HaloTag ligand were quantified by densitometry using […]
labeling efficiency calculations, bands representing saturating chase dye fluorescence (e.g., JF549) were compared to saturating primary dye fluorescence allowing estimation of the amount of […]
Where F is the fraction of HaloTag protein labeled, Ce is the experimental chase dye fluorescence signal after incubation with pulse biotin-JF-HaloTag ligand, and Cs is the saturating chase dye fluorescence without incubation with a pulse ligand. […]

Assay [2] concerns sfGFP–BRD4 in Neuro2a cells expressing coilin–HaloTag. The experiment in a line: BRD4 translocation to coilin–HaloTag, LLSM. Format: cell-based. The following applies: Neuro2a cells, LLSM, 90 min. As to the method:
The ability of JQ1 ligands to enter living cells and recruit BRD4 to defined genomic regions was evaluated using lattice light sheet fluorescence microscopy (LLSM). Neuro2a cells were transiently transfected with plasmids encoding three fusion proteins: i) HaloTag protein fused to coilin, […]; ii) superfolder GFP–BRD4; and iii) histone H2B–mCherry as a nuclear marker. The Cajal body component coilin localizes in distinct puncta in the nucleus ([62]) compared to the diffuse euchromatic distribution of BRD4. […]
Neuro2a cell culture, labeling, lattice light sheet microscopy (LLSM), and confocal microscopy. […]
Full 3D volumes at multiple stage positions were collected at 2 minute intervals for 90 minutes total. […] The recruitment of histone H3.3 was assessed by imaging after 24 h incubation with 19HTL. […]
LLSM imaging processing. Raw image data volumes were deskewed and rotated, then empirically deconvolved using a Richardson-Lucy maximum likelihood algorithm using experimentally measured PSFs for each color channel for 30 iterations. […] These segmentation masks were then used to isolate each nucleus for further quantitative analyses. […] The amount of BRD4 signal was then assessed in- versus outside HaloTag labeled domains throughout the 90-min time-lapse acquisition. […]

Take (R)-JQ1–JF635–HaloTag ligand [20HTL]: the “BRD4 translocation to HP1a–HaloTag” value in assay [1] is “no GFP–BRD4 recruitment”. In addition, the “BRD4 recruitment to coilin–HaloTag sites” value in assay [2] is “no GFP–BRD4 recruitment”.
